The values that follow come from US20260284079A1, “LIPID PRODRUGS OF ALLOPR[…] USES THEREOF” (Seaport Therapeutics, Inc., priority 2023, published 2026).

Data set [1] is described as follows: Body sway (posturography). The format is in vivo, human. As to conditions: MAD. As to the method: Body Sway is assessed as a measure of a subject's slight postural movements in order to retain balance either statically in a neutral position or dynamically while in motion. Body Sway is typically measured by total displacement of the center of body mass relative to the base of support over time. Posturography is an objective, sensitive, reliable, and non-invasive method designed to assess the effects of drugs and alcohol on body sway and vigilance. Body sway is recorded using a computerized force-platform. Using specific positioners, bare feet subjects are asked to stand still and motionless, looking at a cue placed in front of them. Measurement of body sway (one minute with eyes open and one minute with eyes closed) is recorded as recommended by the International Society of Postuography. The length and area of the postural oscillations are then calculated.

Data set [2] is described as follows: Video-oculography (VOG), saccades. As to conditions: day 1, all doses tested (250, 375, 500 mg). The format is in vivo, human. The source says: Video-oculography (VOG) is a non-invasive, visual method of measuring horizontal, vertical, and torsional components involved in eye tracking, making use of a head-mounted mask equipped with cameras. VOG was used to measure 3 assessment metrics: horizontal saccades (movement of eyes towards a point of fixation), horizontal anti-saccades (movement of eyes away from a point of fixation), and horizontal and vertical pursuits (fixation of eyes on a moving object).
Binocular (both eyes) movements viewing were measured during the saccades test. During this 1-min trial, the visual target (small square) will jump from 0° to 10° to the right or to the left in a pseudorandom sequence. Duration of the target on screen vary pseudo-randomly from 1,500 to 2,000 ms to minimize anticipation of the subject. Then the visual target will be extinguished during 200 ms before the next move starting from the center. The participant is instructed to track the target on screen from center to side and from side to center without anticipation. The antisaccades test is identical to the saccades test in its procedure (with 10° jumps of the target) except that there is no extinction of the target. […]
Binocular movements viewing were measured during the pursuit tests. […]

Data set [3] is described as follows: Multiple ascending dose (MAD) study, PK (Example 1 Part 3). Particulars: allopregnanolone and combined allopregnanolone.
Data set [4] in a line: Columbia-Suicide Severity Rating Scale (C-SSRS). The format is in vivo, human. As to conditions: parts 1-3. As to the method:
The Columbia-Suicide Severity Rating Scale (C-SSRS) is a validated tool designed to quantify the severity of suicidal ideation and behavior. This scale was administered by individuals who have received training in its administration, as described in further detail at https://cssrs.columbia.edu/the-columbia-scale-c-ssrs/about-the-scale/.

Data set [5] is described as follows: Quantitative electroencephalogram (qEEG). The format is in vivo, human. From the text: Quantitative Electroencephalogram (qEEG or EEG) has gained prominence as a useful biomarker in human drug studies as it is continuous, objective, repeatable, sensitive, reproducible, non-invasive and highly translatable from nonclinical data. EEG serves as biomarker in this protocol and provides PD outcomes for PK-PD modeling, thus enabling a more thorough understanding of the pharmacological effects of Compound 1. In addition, EEG can provide useful safety information regarding detection of epileptiform activity and any pro-convulsive effects of the study drug. Data outputs included spectral analysis and flat brain mapping, among others.
EEG was collected at multiple time points before and after dosing on Day 1 and Day 7 of the MAD portion of the study except for Cohort 8. For a given recording, the subject was fitted with a cap containing the electrodes. For each session, recordings were collected for approximately 15 minutes while subjects are sitting quietly, and include portions with eyes open and eyes closed.
The qEEG is a quantitative measurement of brain oscillations considering different frequency levels. Resting-state brain activity was recorded in 2 conditions (eyes closed and eyes open). For each electrode, a spectral analysis of the EEG signal was carried out to derive absolute and relative powers in standard frequency bands. […]

The nature of data set [6]: TSST study safety and tolerability (Example 2). The format is in vivo, human. As to the method: A double-blind, placebo-controlled study was performed in 80 healthy participants to determine the effects of a single dose of Compound 1 in a validated and standardized behavioral challenge, the Trier Social Stress Test (TSST). The TSST is a reliable behavioral model used to examine the neurobiological response to acute stress in humans, whereby an acute stress (and associated acute stress response) is induced under experimentally controlled conditions. The TSST induces stress through public speaking. It incorporates social evaluation and unpredictability, by obliging the person to speak in front of an unresponsive audience and is further followed by a surprise mental arithmetic test. The TSST combines elements of a social-evaluative threat and uncontrollability to produce a consistent and robust physiological and psychological stress response in humans. On the day of the study, the participant was tasked with a speech prompt, for which they had 3 minutes to prepare. The participant was then required to present the speech for 5 minutes to a panel while under the pretense of being recorded. Following the speech, participants were given an unexpected mental arithmetic task. The TSST is more fully described in Allen A et al., Neurobiol. Stress (2017), February; 6:113-126.
The study included a validation cohort and a randomized cohort. The validation cohort (n=10) was given placebo for the purposes of validating the TSST and study endpoints. The randomized cohort […] were randomized and stratified by sex to placebo or 375 mg of Compound 1 in a 1:1 ratio. The cohorts are described in Table 14. An overview of the TSST study design is also depicted in FIG. 4C.
The objective of the study was to evaluate the efficacy of Compound 1 vs. placebo in blunting the response to endpoints measured during and after the TSST procedure. The primary efficacy endpoint was the change from baseline (before TSST procedure) to the peak (maximum change) in salivary cortisol levels as measured before, during, and after the TSST procedure. The primary outcome for determining this was salivary cortisol levels. The key secondary outcomes were be the Numerical Rating Scale (NRS) for stress, anxiety, fear, embarrassment, and excitement. Additional secondary outcomes were the State Trait Anxiety Index (STAI), and blood pressure. Safety and tolerability (i.e., incidence, severity, and duration of treatment-emergent adverse events (TEAEs), serious adverse events (SAEs), and incidence of other clinically relevant signs) were also monitored. Prior to the TSST, a post-dose sample was collected for pharmacokinetic analysis.

For `CCCCCCCC(=O)OCC(COC(=O)CCCCCCC)OC(=O)CC(C)CC(=O)OCOC(=O)O[C@@H]1CC[C@@]2(C)[C@@H](CC[C@@H]3[C@@H]2CC[C@]2(C)[C@@H](C(C)=O)CC[C@@H]32)C1` (stereo partly drawn) [Compound 1], the “effects on body sway” value in data set [1] (day 1) was “Slight effects”; in data set [1] (day 7), “absent”. For the same molecule, the “time of maximum drop of saccade peak velocity” value in data set [2] was determined as 4 hour post-dose. Also, the “accumulation upon multiple dosing” value in data set [3] (once daily) is “minimal accumulation”. In addition, the “time to steady state” value in data set [3] (once daily administration) was “Day 2 and Day 3”. Further, the “suicidal ideation or suicidal behavior” value in data set [4] was “No subjects across all parts (1-3) reported any suicidal ideation or suicidal behavior”. Further, the “qEEG power for the β-band (β1, β2, β3)” value in data set [5] (cohorts 4 (250 mg), 5 (375 mg), 6 (500 mg)) is given as “dose-dependent increase in power”. Besides, the “time of maximum qEEG effects following administration” value in data set [5] (day 1 and day 7) is recorded as “approximately 4 hours”. Also, in data set [6] (single 375 mg dose), the “tolerability in the TSST study” value is listed as “well tolerated”. This molecule also yielded a TEAE dizziness in data set [6] (single 375 mg, placebo 3%) of 20%. In addition, the TEAE headache in data set [6] (single 375 mg, placebo 7.7%) is recorded as 7.3%. Moreover, the TEAE somnolence in data set [6] (single 375 mg, placebo 13%) came to 29%.
